Patent US10000484B2, “Inhibitors of the renal outer medullary potassim channel” (MERCK SHARP & DOHME CORP., priority 2013, dated 2018)

The compounds below were run against T1, ROMK (Kir1.1) (Homo sapiens, UniProt P48048) (assay: 86Rb+ Efflux Assay, described in WO2013/062892 at pages 79-80). Details: values marked "(Rb)" in Table 10.
T1 sequence (P48048 1-391): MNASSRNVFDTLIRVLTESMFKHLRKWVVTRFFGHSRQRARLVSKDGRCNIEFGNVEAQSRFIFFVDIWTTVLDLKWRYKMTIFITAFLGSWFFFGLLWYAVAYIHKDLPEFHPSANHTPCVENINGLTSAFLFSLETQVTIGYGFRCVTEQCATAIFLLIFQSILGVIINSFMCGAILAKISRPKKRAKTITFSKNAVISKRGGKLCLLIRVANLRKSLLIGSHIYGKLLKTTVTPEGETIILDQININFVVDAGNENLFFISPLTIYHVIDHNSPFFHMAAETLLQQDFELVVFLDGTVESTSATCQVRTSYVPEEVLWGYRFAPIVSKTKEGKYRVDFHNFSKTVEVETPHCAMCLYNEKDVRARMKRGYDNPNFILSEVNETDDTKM
Format: cell-based
Source text: The data for Examples 2, 3, 4, 8, 9, 10, 15 and 32 were obtained using the ^86Rb^+ Efflux Assay, described in WO2013/062892 at pages 79-80.

Row | SMILES | IC50 [nM]
1 | Cc1c(CCN2CCc3c(cnn3-c3ccc(-n4cnnn4)cc3)C2)ccc2c1COC2=O [Example 8, 4-methyl-5-(2-{1-[4-(1H-tetrazol-1-yl)phenyl]-1,4,6,7-tetrahydro-5H-pyrazolo[4,3-c]pyridin-5-yl}ethyl)-2-benzofuran-1(3H)-one] | 380
2 | Cc1c(CCN2CCc3c(cnn3-c3ccc4c(c3)COC4=O)C2)ccc2c1COC2=O [Example 10, 4-methyl-5-{2-[1-(1-oxo-1,3-dihydro-2-benzofuran-5-yl)-1,4,6,7-tetrahydro-5H-pyrazolo[4,3-c]pyridin-5-yl]ethyl}-2-benzofuran-1(3H)-one] | 66
3 | COc1cc(-c2cn3c(n2)CN(CCc2ccc4c(c2C)COC4=O)CC3)ccc1C#N [Example 15, 2-methoxy-4-{7-[2-(4-methyl-1-oxo-1,3-dihydro-2-benzofuran-5-yl)ethyl]-5,6,7,8-tetrahydroimidazo[1,2-a]pyrazin-2-yl}benzonitrile] | 197

Now from value to compound:

Row | IC50 [nM] | SMILES
4 | 96.1 | Cc1c(CCN2CCc3nc(-c4ccc5c(c4)COC5=O)ncc3C2)ccc2c1COC2=O [Example 9, 4-methyl-5-{2-[2-(1-oxo-1,3-dihydro-2-benzofuran-5-yl)-7,8-dihydropyrido[4,3-d]pyrimidin-6(5H)-yl]ethyl}-2-benzofuran-1(3H)-one]
5 | 69.9 | Cc1c(C(O)CN2CCc3nc(-c4ccc5c(c4)COC5=O)ncc3C2)ccc2c1COC2=O (centres unmarked) [Example 32, 5-{1-hydroxy-2-[2-(1-oxo-1,3-dihydro-2-benzofuran-5-yl)-7,8-dihydropyrido[4,3-d]pyrimidin-6(5H)-yl]ethyl}-4-methyl-2-benzofuran-1(3H)-one]
